Assay: in vitro
Conditions: human, hela cells, % viability

Structure (SMILES) | viability at 28.5 h, 10 µM [%]
CC(=O)c1ccc(C(=O)N2CCC3(CC2)CC(=O)c2ccc4ccccc4c2O3)cc1 [CBK156458] | 104
CC12CCC(C(=O)O)(c3nc4c(ccc5ncccc54)nc31)C2(C)C (centres unmarked) [CBK269470] | 91.1
CCc1cc(-c2n[nH]c(C(=O)O)c2-c2nc(C)cs2)c(O)cc1O [CBK268247] | 99.4
Cc1cc2c(=O)n(CC(=O)NCc3ccccn3)cnc2s1 [CBK071900] | 91.1
CC(C)Nc1cc(Sc2ccc(F)cc2)ncn1 [CBK089498] | 94.2
COc1cc(CNC(=O)c2cccnc2Sc2ccc(Cl)cc2)ccn1 [CBK297755] | 108
Cc1ccc(-n2c(C)c([N+](=O)[O-])c3ccc(O)cc32)cc1 [CBK094246] | 86.2
Cc1c(C(=O)O)sc2nc(C=Cc3ccc(OCCC(C)C)cc3)[nH]c(=O)c12 [CBK297539] | 94
Cc1noc2c1[C@H]1[C@H](O)[C@H](O)C[C@H]1C1(CCC1)N2 [CBK303266] | 111
Cc1ccccc1-n1ncc2c1ncn1nc(-c3ccccc3)nc21 [CBK287797] | 94.3
Cc1ccc(O)cc1CC[C@@H]1CC(=O)CC2(C)C1CC[C@]2(O)C(=O)COC(=O)CCC(=O)O (some centres unmarked) [CBK007270] | 119
COc1ccccc1NS(=O)(=O)c1cc(S(=O)(=O)Nc2ccccc2OC)c(C)cc1C [CBK261493] | 92
Cc1cc(/C=C(/C#N)c2ccc([N+](=O)[O-])cc2)c(C)n1-c1ccc(S(N)(=O)=O)cc1 [CBK266737] | 108
O=C(CN1CCCCCC1)N/N=C/c1ccccc1Cl [CBK261589] | 89.4
O=C(CCCN1C(=O)c2cccc3cccc(c23)C1=O)N1CCN(Cc2ccc3c(c2)OCO3)CC1 [CBK074370] | 72.6
CC(=O)Nc1ccc(NCc2nc(C(C)C)no2)c(C(F)(F)F)c1 [CBK305743] | 101
O=C(O)C(CC1COc2ccccc2O1)C(=O)O (centres unmarked) [CBK276280] | 89.6
O=C(O)C1CCCN1S(=O)(=O)c1ccc2[nH]c(=O)c(=O)[nH]c2c1 (centres unmarked) [CBK266971] | 88.9
Cc1cccc(C(=O)N/N=C/c2ccoc2)c1O [CBK018727] | 90.7
Nc1nc(-c2ccccc2I)n[nH]1 [CBK027413] | 93.4
C/N=C1/SC(CC(=O)Nc2cccc(C(=O)O)c2)C(=O)N1C (centres unmarked) [CBK265581] | 99.8

Structure (SMILES) | viability at 28.5 h, 10 µM [%]
CC(C)C(NS(=O)(=O)c1ccc2ccccc2c1)C(=O)O (centres unmarked) [CBK286919] | 96.7
COc1ccccc1-c1nccnc1OC [CBK106811] | 93.7
CCN1C(=O)COC[C@@H]1[C@H](O)c1ccc(NC(=O)Cc2ccc(OC)cc2)cc1 [CBK289676] | 90.2
CN(Cc1cnn(C)c1)C(=O)c1cc(O)nc2ccccc12 [CBK251706] | 106
OC(c1ccc2c(c1)OCO2)C1CCCCC1N1CCCCCC1 (centres unmarked) [CBK022779C] | 100
COc1ccc(C(=O)Nc2ccccc2N2CCN(C)CC2)c(OC)c1 [CBK269763] | 90.4
NNC(=O)/C(=C\c1ccccc1)CCO [CBK261215] | 117
COc1cnc(-c2cnn(C)c2)c(NC(=O)C2CC2)n1 [CBK145328] | 104
O=C(c1ncccc1O)N1CC(O)CC1c1cc(F)ccc1F (centres unmarked) [CBK306452] | 97.9
C#CCNC(=O)CC[C@H]1CNC(=O)[C@@H]2[C@@H](CCN2CC(C)(C)C)N1C [CBK289035] | 95.1
O=C1NCCCC12CCN(Cc1cccs1)CC2 [CBK285346] | 85.2
Nc1ncc(-c2cncnc2)nc1N1CCOCC1 [CBK063422] | 93.7
O=C(Cc1ccccc1)N1CCN(Cc2ccc3ccccc3c2)CC1 [CBK263037] | 112
Cc1ccc(CNC(Cc2c[nH]c3ccccc23)C(=O)O)cc1 (centres unmarked) [CBK287145] | 106
CC(C)Nc1cncc(Sc2cccc(C(=O)O)c2)n1 [CBK093582] | 95.1
COc1nccc(N2CCC3(CC(=O)NC3=O)C2)c1C#N (centres unmarked) [CBK307246] | 108
COc1ccc(OCCNC(=O)c2ccccc2-n2cccc2)cc1 [CBK149592] | 95.6
CN(CC(=O)O)S(=O)(=O)c1ccc2c(c1)OCCO2 [CBK263904] | 95.8
CCC(NC(=O)C1(Cn2ccnc2)CC1)c1ncccc1C (centres unmarked) [CBK307046] | 119
CN(C)c1ccc(-c2nccnc2NS(=O)(=O)c2ccc3ccccc3c2)cc1 [CBK050794] | 93.4
CC(=O)Nc1ccc(SC(C)c2nsc(NS(=O)(=O)c3ccc(-c4ccccc4)cc3)n2)cc1 (centres unmarked) [CBK047508] | 91.5

Structure (SMILES) | viability at 28.5 h, 10 µM [%]
Cc1c(C(=O)O)c2cc(O)ccc2n1-c1ccccc1 [CBK115329] | 103
Cc1noc(C)c1CN1CCN(CC(CC(=O)Nc2ccccc2)C(=O)O)CC1 (centres unmarked) [CBK286858] | 83.2
CC(=O)OC(Cn1c2ccccc2c2ccccc21)Cn1c2ccccc2c2ccccc21 [CBK262307] | 104
CN(C)c1cc(=O)c2cc3c(cc2o1)CCC3 [CBK010017] | 67.2
O=C(O)CCCC(=O)N1CCN(C(=O)c2sc3cc(Cl)ccc3c2Cl)CC1 [CBK286973] | 91
O=C(NCCCn1ccnc1)c1ccccc1C(=O)c1ccccc1 [CBK262954] | 93.2
Cn1c2c(c3ccccc31)CCOC21CCNCC1 [CBK081142] | 99.3
Cc1nc(-c2ccccc2)c(CC(=O)NC2CCCOC2)s1 (centres unmarked) [CBK282586] | 93.4
CN(C)CCNC(=O)c1cccc(-c2cnc3[nH]c(=O)n(C4CCCCC4)c3n2)c1 [CBK064191] | 103
Cn1c(O)c(CCNc2cc([C@H]3C[C@@H](N)C3)nc(C3CC3)n2)cnc1=O [CBK306819] | 85
CN(C)CCN(CCc1ccccc1)Cc1ccncc1 [CBK283145] | 91.5
CC1=Nc2c(ccc3nsnc23)NC(=O)C1 [CBK019676] | 97.1
O=C(CC1(O)C(=O)N(Cc2ccc3c(c2)OCO3)c2ccccc21)c1cccnc1 (centres unmarked) [CBK269633] | 103
Cc1cc(NC(=O)c2cc(C)[nH]n2)c2ccccc2n1 [CBK116260] | 98.5
Cc1ccn2c(C3CCN(CCc4ccccc4)CC3)nc(-c3ccccc3)c2c1 [CBK035490] | 89.4
CC1(c2ccccc2)CC(=O)N(CCC(=O)O)C1=O (centres unmarked) [CBK287091] | 83.3
O=C1N=C(NC2CCCCCC2)S[C@@H]1CC1CCCCC1 [CBK070723] | 95.8
Cc1ccc(-c2nc3ncccc3o2)cc1NC(=O)c1ccc(-c2cccc([N+](=O)[O-])c2)o1 [CBK268548] | 90.7
CC(=O)NCc1ccc(-c2ccc(C(=O)NCc3ccc4[nH]c(C)c(C)c4c3)c(C)n2)cc1 [CBK285888] | 72.1
COCOc1ccc(-c2nc(-c3cccnc3)cnc2N)cc1 [CBK063999] | 93.6
CCCCCn1c(=O)c(C(=O)Nc2cccc(O)c2)c(O)c2ccccc21 [CBK291189] | 111

Structure (SMILES) | viability at 28.5 h, 10 µM [%]
O=c1[nH]c(Nc2ccccc2)nc2nccc(-c3ccccc3)c12 [CBK288072] | 88.8
COc1ccc(-c2cn(C[C@H]3CC4CCN3C[C@@H]4C(=O)NC3CCCCC3)nn2)cc1 (some centres unmarked) [CBK289084] | 107
Cc1cc(NCc2ccccc2)nc2ccccc12 [CBK262206] | 93.5
CCOc1ccc(S(=O)(=O)N2CCCN(Cc3ccc(F)cc3F)CC2)c2cccnc12 [CBK062757] | 109
Cc1ccccc1NC(=O)Cn1cnc2c(cnn2-c2ccccc2)c1=O [CBK287530] | 104
Cc1cc2c(cc3c(=O)n(CC(=O)N4CCCCCC4)nc(C)n32)o1 [CBK283591] | 103
CC(Sc1ccc(Br)c2cccc(C(=O)O)c12)C(=O)O (centres unmarked) [CBK266226] | 97.4
O=C1NCCN(C(=O)c2[nH]nc3c2CCCCC3)C1Cc1ccccc1-c1ccc(F)cc1 (centres unmarked) [CBK285831] | 98.1
COc1ccc(OCCNC(=O)c2ccc(-c3ccc(C(C)=O)s3)nc2N(C)C(C)=O)cc1 [CBK076576] | 95.5
Cc1nc2c(C)cccc2cc1C(=O)NCCCc1ccccn1 [CBK282148] | 82.8
CCOC(=O)N1COC[C@@H]1C(=O)O [CBK010379] | 81.5
CCn1c(CNC(=O)c2cn3ccc(C)cc3n2)nc2ccccc21 [CBK281394] | 91.2
Cc1cc(C2CCCCCN2C(=O)c2cccc(F)c2)on1 (centres unmarked) [CBK285448] | 96.8
O=C(Nc1ccc(S(=O)(=O)Nc2nccs2)cc1)C1CC(=O)N(c2ccccc2)C1 (centres unmarked) [CBK264732] | 104
Cn1c(=O)[nH]c(=O)c2c1nc(N1CCCCC1)n2CCCSc1nc2ccccc2s1 [CBK269550] | 103
O=C1NC2=C(C(=O)N(CC3CCCO3)C2)C(c2cccc(F)c2)N1 (centres unmarked) [CBK282364] | 86.1
Nc1ncc(-c2cccc3ccccc23)nc1NC1CCCCC1 [CBK063588] | 94
Cn1nccc1C(=O)C1CCN(C(=O)c2cccc(F)c2)CC1 [CBK284426] | 89.2
COc1ccc([N+](=O)[O-])cc1NC(=O)CSCc1ccc(Br)cc1 [CBK268272] | 90.9
COc1cccc(OCC2CCCN(C(=O)CCc3cnn(C)c3)C2)c1 (centres unmarked) [CBK306931] | 85
COc1ccc(-c2cc([C@H]3CN4CC[C@H]3C[C@@H]4CNC(=O)c3ccco3)n(C)n2)cc1 [CBK289099] | 113

Same assay, conditions: human, hela cells, % viability, bulk resorufin, single well

Structure (SMILES) | viability at 28.5 h, 10 µM [%]
COc1cc(C=C2C(=O)NC(=S)NC2=O)ccc1OCc1c(C)no[n+]1[O-] [CBK263467] | 95.8
Cc1c([N+](=O)[O-])c([N+](=O)[O-])nn1CC(=O)NCc1cccnc1 [CBK262428] | 97.2
O=C1NC(=S)NC(=O)C1=CNCCc1c[nH]c2ccccc12 [CBK261124] | 110
O=C(O)CC1(CC(=O)N2CCC3(CC2)OCc2cc(F)ccc2O3)CCCC1 [CBK060858] | 94.7
CC(N)c1cc2ccccc2o1 (centres unmarked) [CBK001492C] | 97.7

From article PMC12040169 (PLOS Biology, 2025)
